The values below come from paper PMC6934184, “Selective DNA-PKcs inhibition extends the therapeutic index of localized radiotherapy and chemotherapy” (The Journal of Clinical Investigation, 2019).

This assay addresses T1, PIK3C2A (PI3K-C2 alpha) (Homo sapiens, UniProt O00443).
T1 construct: purchased Thermo Fisher Scientific (Life Technologies) SelectScreen
Put plainly: SelectScreen Adapta. In kind it is biochemical. Put shortly:
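Percent values come from Thermo SelectScreen profiling of NU5455, combining activity and binding assays. CSF1R was run in Z'LYTE format at Km app ATP, and CAMK1 in Adapta format with ATP listed at 10.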

The term inhibition denotes the relative decrease from the control value, in per cent.

T1 sequence (O00443 whole entry): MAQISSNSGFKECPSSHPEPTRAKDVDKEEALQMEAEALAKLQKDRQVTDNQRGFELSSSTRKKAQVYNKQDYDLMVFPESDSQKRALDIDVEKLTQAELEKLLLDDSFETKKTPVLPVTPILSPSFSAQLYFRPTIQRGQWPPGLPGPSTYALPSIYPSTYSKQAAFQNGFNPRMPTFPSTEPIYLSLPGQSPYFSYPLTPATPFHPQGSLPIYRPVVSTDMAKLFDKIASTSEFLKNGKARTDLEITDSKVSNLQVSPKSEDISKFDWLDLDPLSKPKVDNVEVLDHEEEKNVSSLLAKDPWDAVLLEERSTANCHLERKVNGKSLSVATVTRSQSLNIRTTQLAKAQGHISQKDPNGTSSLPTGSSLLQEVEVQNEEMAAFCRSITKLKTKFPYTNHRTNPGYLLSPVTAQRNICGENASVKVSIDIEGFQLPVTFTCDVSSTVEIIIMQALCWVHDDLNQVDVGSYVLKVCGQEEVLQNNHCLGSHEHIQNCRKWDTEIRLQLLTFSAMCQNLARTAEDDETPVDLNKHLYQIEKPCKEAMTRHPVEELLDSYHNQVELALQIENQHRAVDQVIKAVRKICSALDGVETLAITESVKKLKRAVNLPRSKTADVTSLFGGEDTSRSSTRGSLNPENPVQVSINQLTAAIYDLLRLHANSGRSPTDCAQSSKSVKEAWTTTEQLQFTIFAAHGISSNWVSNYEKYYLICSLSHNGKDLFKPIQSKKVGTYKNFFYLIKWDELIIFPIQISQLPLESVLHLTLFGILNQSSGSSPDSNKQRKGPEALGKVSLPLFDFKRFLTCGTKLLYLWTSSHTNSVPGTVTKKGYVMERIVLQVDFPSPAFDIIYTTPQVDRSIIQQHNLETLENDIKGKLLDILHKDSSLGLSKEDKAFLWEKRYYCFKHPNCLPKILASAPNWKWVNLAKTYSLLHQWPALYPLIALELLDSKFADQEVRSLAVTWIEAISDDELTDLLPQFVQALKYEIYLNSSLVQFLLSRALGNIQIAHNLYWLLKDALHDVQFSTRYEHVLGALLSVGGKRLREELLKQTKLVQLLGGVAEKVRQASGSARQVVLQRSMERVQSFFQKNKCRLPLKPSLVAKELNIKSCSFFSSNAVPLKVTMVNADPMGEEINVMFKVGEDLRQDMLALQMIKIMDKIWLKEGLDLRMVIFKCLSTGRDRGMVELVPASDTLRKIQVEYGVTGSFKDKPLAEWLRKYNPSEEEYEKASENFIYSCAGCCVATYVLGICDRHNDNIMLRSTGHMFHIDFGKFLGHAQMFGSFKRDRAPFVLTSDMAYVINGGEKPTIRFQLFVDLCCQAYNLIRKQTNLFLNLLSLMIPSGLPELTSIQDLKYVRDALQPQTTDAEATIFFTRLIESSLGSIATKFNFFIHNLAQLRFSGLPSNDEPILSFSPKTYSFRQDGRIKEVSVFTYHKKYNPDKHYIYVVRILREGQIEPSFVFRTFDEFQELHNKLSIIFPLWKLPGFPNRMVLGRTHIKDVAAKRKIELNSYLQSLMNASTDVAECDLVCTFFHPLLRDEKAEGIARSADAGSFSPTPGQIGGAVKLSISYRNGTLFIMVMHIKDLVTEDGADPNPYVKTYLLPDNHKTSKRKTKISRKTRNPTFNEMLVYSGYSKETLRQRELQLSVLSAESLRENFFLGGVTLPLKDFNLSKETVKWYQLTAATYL

The compound `CN(C(=O)CN1CCOCC1)c1ccc2sc3c(-c4cccc5c(=O)cc(N6CC7CCC(C6)O7)oc45)cccc3c2c1` [NU5455] showed an inhibition at 1 µM of 1.3%.
